# Where no end group is shown, it is not given here.
# System: healthy mice
# Experiment: Repeated-dose safety in healthy mice
# Assay type: in vivo
# Conditions: dose four times higher than the effective dose, daily, for 28 days
# Source text: Accordingly, the peptide of the invention is suitable for chronic use. In addition, the peptide of the invention was shown effective when administered intravenously (IV), intraperitoneally (IP) or in combination of these two modes of delivery.
substance,measurement,value
"LPPLPYP [SEQ ID NO: 1, LPPLPYP]",Side effects,did not initiate any detectable side effect

# — patent publication US11852634B2, “Use of AKT phosphorylation as a biomarker for prognosing neurodegenerative diseases and treating same” (Yeda Research and Development Co. Ltd., priority 2011, dated 2023)
